Source: PubChem BioAssay (NCI)
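48-hour exposure; five concentrations; linearly interpolated endpoints. GI50 is the concentration that inhibits growth by half. TGI is the concentration that stops growth completely.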

Experiments:
Experiment in all cases: DTP human tumour cell line panel, 48 h
[1] = tested on: HOP-62 NSCLC
[2] = tested on: SNB-19 CNS
[3] = tested on: RPMI-8226 leukemia
[4] = tested on: OVCAR-8 ovarian
[5] = tested on: RXF 393 renal
[6] = tested on: A498 renal
[7] = tested on: NCI-H460 lung
[8] = tested on: CAKI-1 renal
[9] = tested on: NCI-H23 lung
[10] = tested on: EKVX NSCLC
[11] = tested on: MOLT-4 leukemia
[12] = tested on: HOP-92 NSCLC
[13] = tested on: OVCAR-5 ovarian
[14] = tested on: DU-145 prostate
[15] = tested on: MDA-MB-435
[16] = tested on: MALME-3M melanoma
[17] = tested on: COLO 205 colon
[18] = tested on: IGROV1 ovarian
[19] = tested on: A549 NSCLC
[20] = tested on: UO-31 renal
[21] = tested on: PC-3 prostate
[22] = tested on: HCT-116 colon
[23] = tested on: OVCAR-4 ovarian
[24] = tested on: HL-60(TB) leukemia
[25] = tested on: NCI-H522 lung
[26] = tested on: SK-OV-3 ovarian
[27] = tested on: MCF7 breast
[28] = tested on: HS 578T breast
[29] = tested on: NCI/ADR-RES ovarian
[30] = tested on: T-47D breast
[31] = tested on: SNB-75 CNS
[32] = tested on: CCRF-CEM leukemia
[33] = tested on: SF-268 CNS
[34] = tested on: UACC-257 melanoma
[35] = tested on: SK-MEL-2 melanoma
[36] = tested on: BT-549 breast
[37] = tested on: KM12 colon
[38] = tested on: NCI-H226 lung
[39] = tested on: HCC-2998 colon
[40] = tested on: SF-295 CNS
[41] = tested on: SR leukemia
[42] = tested on: SW-620 colon
[43] = tested on: K-562 leukemia
[44] = tested on: MDA-MB-231 breast
[45] = tested on: HT29 colon
[46] = tested on: SK-MEL-28 melanoma
[47] = tested on: UACC-62 melanoma
[48] = tested on: TK-10 renal
[49] = tested on: M14 melanoma
[50] = tested on: U251 CNS
[51] = tested on: SK-MEL-5 melanoma
[52] = tested on: LOX IMVI melanoma
[53] = tested on: HCT-15 colon
[54] = tested on: SF-539 CNS
[55] = tested on: 786-0 renal
[56] = tested on: SN12C renal
[57] = tested on: OVCAR-3 ovarian
[58] = tested on: ACHN renal

SMILES: COc1cc2c(cc1OC)-c1ccc3cc4c(cc3c1N(CCN(C)C)C2)OCO4
- GI50 [1]: 373 nM
- TGI [1]: 3970 nM
- GI50 [2]: 400 nM
- TGI [2]: 11900 nM
- GI50 [3]: 221 nM
- TGI [3]: 1360 nM
- GI50 [4]: 510 nM
- TGI [4]: 3440 nM
- GI50 [5]: 848 nM
- TGI [5]: 2890 nM
- GI50 [6]: 723 nM
- TGI [6]: 2530 nM
- GI50 [7]: 256 nM
- TGI [7]: 1200 nM
- GI50 [8]: 596 nM
- TGI [8]: 11400 nM
- GI50 [9]: 393 nM
- TGI [9]: 2960 nM
- GI50 [10]: 1330 nM
- TGI [10]: 13700 nM
- GI50 [11]: 158 nM
- TGI [11]: 2570 nM
- GI50 [12]: 859 nM
- TGI [12]: 7940 nM
- GI50 [13]: 1530 nM
- TGI [13]: 5230 nM
- GI50 [14]: 377 nM
- TGI [14]: 8760 nM
- TGI [15]: 17600 nM
- GI50 [16]: 1150 nM
- TGI [16]: 9450 nM
- GI50 [17]: 370 nM
- TGI [17]: 1920 nM
- GI50 [18]: 943 nM
- TGI [18]: 3250 nM
- GI50 [19]: 694 nM
- TGI [19]: 2130 nM
- GI50 [20]: 1770 nM
- TGI [20]: 5770 nM
- GI50 [21]: 411 nM
- TGI [21]: 6060 nM
- GI50 [22]: 411 nM
- TGI [22]: 1830 nM
- GI50 [23]: 911 nM
- TGI [23]: 13300 nM
- GI50 [24]: 250 nM
- TGI [24]: 681 nM
- GI50 [25]: 188 nM
- TGI [25]: 1560 nM
- GI50 [26]: 518 nM
- TGI [26]: 3200 nM
- GI50 [27]: 122 nM
- TGI [27]: 5980 nM
- GI50 [28]: 1680 nM
- TGI [28]: 13700 nM
- GI50 [29]: 10900 nM
- TGI [29]: 45600 nM
- GI50 [30]: 210 nM
- TGI [30]: 3480 nM
- GI50 [31]: 350 nM
- TGI [31]: 6000 nM
- GI50 [32]: 148 nM
- TGI [32]: 3730 nM
- GI50 [33]: 214 nM
- TGI [33]: 2410 nM
- GI50 [34]: 2430 nM
- TGI [34]: 16500 nM
- GI50 [35]: 3360 nM
- TGI [35]: 16700 nM
- GI50 [36]: 1150 nM
- TGI [36]: 11900 nM
- GI50 [37]: 970 nM
- TGI [37]: 2470 nM
- GI50 [38]: 772 nM
- TGI [38]: 2520 nM
- GI50 [39]: 1290 nM
- TGI [39]: 2870 nM
- GI50 [40]: 400 nM
- TGI [40]: 8280 nM
- GI50 [41]: 52.4 nM
- TGI [41]: 2630 nM
- GI50 [42]: 522 nM
- TGI [42]: 2580 nM
- GI50 [43]: 262 nM
- TGI [43]: 1570 nM
- GI50 [44]: 1630 nM
- TGI [44]: 5310 nM
- GI50 [45]: 265 nM
- TGI [45]: 1640 nM
- GI50 [46]: 3040 nM
- TGI [46]: 17300 nM
- GI50 [47]: 403 nM
- TGI [47]: 5400 nM
- GI50 [48]: 2030 nM
- TGI [48]: 7390 nM
- GI50 [49]: 430 nM
- TGI [49]: 4850 nM
- GI50 [50]: 215 nM
- TGI [50]: 1230 nM
- GI50 [51]: 1390 nM
- TGI [51]: 3010 nM
- GI50 [52]: 271 nM
- TGI [52]: 1320 nM
- GI50 [53]: 4090 nM
- TGI [53]: 17600 nM
- GI50 [54]: 352 nM
- TGI [54]: 2530 nM
- GI50 [55]: 442 nM
- TGI [55]: 1990 nM
- GI50 [56]: 350 nM
- TGI [56]: 4400 nM
- GI50 [57]: 593 nM
- TGI [57]: 2280 nM
- GI50 [58]: 588 nM
- TGI [58]: 3100 nM
